Source: PubChem BioAssay (NCI)
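Dose response: 5 concentrations. Exposure: 48 h. Format: 96-well plates. Endpoint: linear interpolation; highest concentration if not reached. TGI denotes the concentration required for complete inhibition of growth.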 Peptide text beside a SMILES is read from it. * marks the point of attachment. Boc = CC(C)(C)OC(=O)*; OBn = c1ccc(CO*)cc1

Legend:
Experiment in all cases: NCI tumour cell line growth inhibition, 48 h
A498 renal = tested on: A498 renal
ACHN renal = tested on: ACHN renal
EKVX NSCLC = tested on: EKVX NSCLC
HCT-15 colon = tested on: HCT-15 colon
HL-60(TB) leukemia = tested on: HL-60(TB) leukemia
KM12 colon = tested on: KM12 colon
MOLT-4 leukemia = tested on: MOLT-4 leukemia
NCI-H460 lung = tested on: NCI-H460 lung
NCI-H522 lung = tested on: NCI-H522 lung
RXF 393 renal = tested on: RXF 393 renal
SF-268 CNS = tested on: SF-268 CNS
SK-MEL-2 melanoma = tested on: SK-MEL-2 melanoma
U251 CNS = tested on: U251 CNS
UACC-257 melanoma = tested on: UACC-257 melanoma

| SMILES | TGI (A498 renal) | TGI (ACHN renal) | TGI (EKVX NSCLC) | TGI (HCT-15 colon) | TGI (HL-60(TB) leukemia) | TGI (KM12 colon) | TGI (MOLT-4 leukemia) | TGI (NCI-H460 lung) | TGI (NCI-H522 lung) | TGI (RXF 393 renal) | TGI (SF-268 CNS) | TGI (SK-MEL-2 melanoma) | TGI (U251 CNS) | TGI (UACC-257 melanoma) |
| --- | --- | --- | --- | --- | --- | --- | --- | --- | --- | --- | --- | --- | --- | --- |
| CC(=O)NC1C(O)C(O)C(CO)OC1n1ncc(=O)[nH]c1=O (centres undefined) | > 100 µM | > 100 µM | > 100 µM | > 100 µM | > 100 µM | > 100 µM | > 100 µM | > 100 µM | > 100 µM | > 100 µM | > 100 µM | > 100 µM | > 100 µM | > 100 µM |
| COc1cccc2c(Nc3ccc(S(=O)(=O)NC(C)=O)cc3)c3ccc([N+](=O)[O-])cc3nc12 | > 100 µM | > 100 µM | > 100 µM | > 100 µM | > 100 µM | > 35.3 µM | 80.5 µM | > 100 µM | > 100 µM | > 100 µM | > 93.7 µM | > 100 µM | > 53.5 µM | > 54.9 µM |
| O=C(O)c1ccc(Nc2nc3ccccc3nc2-c2cccs2)cc1 | > 100 µM | > 100 µM | > 100 µM | > 100 µM | > 100 µM | > 100 µM | > 100 µM | > 100 µM | > 100 µM | > 100 µM | > 100 µM |  | > 100 µM | > 100 µM |
| O=C1c2c(ccc3c2CCC3)CC12Cc1cc3c(cc1C2)CCC3 | > 100 µM | > 100 µM | > 100 µM | > 100 µM | > 100 µM | > 100 µM | > 100 µM | > 100 µM | > 100 µM | > 100 µM | > 100 µM | > 100 µM | > 100 µM | > 100 µM |
| OC(C/C(=N\N1CCCCC1)c1cccs1)(C(F)(F)F)C(F)(F)F | > 10 µM | > 10 µM | > 10 µM | > 10 µM | > 10 µM | > 10 µM | > 10 µM | > 10 µM | > 10 µM | > 10 µM | > 10 µM | > 10 µM | > 10 µM | > 10 µM |
| CN(C)C(=O)Nc1cc2c3c(c1)CCCN3CCC2 | > 10 µM | > 10 µM | > 10 µM | > 10 µM | > 10 µM | > 10 µM | > 10 µM | > 10 µM | > 10 µM | > 10 µM | > 10 µM | > 10 µM | > 10 µM | > 10 µM |
| CN(/N=C/c1ccccn1)C1=NCCCCN1 | > 100 µM | > 100 µM | > 100 µM | > 100 µM | > 100 µM | > 100 µM | > 100 µM | > 100 µM | > 100 µM | > 100 µM | > 100 µM | > 100 µM | > 100 µM | > 100 µM |
| O=C1C(=O)c2ccccc2C(O)=C1CN(CCCl)CCCl | > 100 µM | > 100 µM | > 100 µM | > 100 µM | > 100 µM | > 100 µM | > 100 µM | > 100 µM | > 100 µM | > 100 µM | > 100 µM | > 100 µM | > 100 µM |  |
| CC12CCC(C(=O)N3CC=CCC3)(OC1=O)C2(C)C (centres undefined) | > 100 µM |  | > 100 µM | > 100 µM | > 100 µM | > 100 µM | > 100 µM | > 100 µM | > 100 µM | > 100 µM | > 100 µM | > 100 µM | > 100 µM | > 100 µM |
| CC(=O)OC1COC(n2c(-c3ccc(Cl)cc3)cc(-c3ccccc3)c(C#N)c2=S)C(OC(C)=O)C1OC(C)=O (centres undefined) | 34.1 µM | > 31.6 µM | > 100 µM | > 100 µM | > 89.9 µM | > 100 µM | > 100 µM | > 66.8 µM | > 100 µM | 26.9 µM | > 39.3 µM | 29.4 µM | 15.5 µM | > 100 µM |
| NC(N)=N/N=C/c1c(-c2ccc([N+](=O)[O-])cc2)nc2n1CCS2 | 42 µM | 30.7 µM | 37.8 µM | 36.7 µM | 25.1 µM | 21.7 µM | > 33 µM | 32.3 µM | 29.4 µM | 23.4 µM | 25.4 µM | 22 µM | 6.49 µM | 35.6 µM |
| Cc1ccc(SCC(CF)OCn2cc(F)c(=O)[nH]c2=O)cc1 (centres undefined) | > 100 µM | > 100 µM | > 100 µM | > 100 µM | > 100 µM |  | > 100 µM | > 100 µM | > 100 µM | > 100 µM | > 100 µM | > 100 µM | > 100 µM | > 100 µM |
| COc1cc(NCc2ccc3nc(OC)c(OC)nc3c2)cc(OC)c1OC | > 100 µM | > 100 µM | > 100 µM | > 100 µM | > 100 µM | > 100 µM | > 100 µM | > 100 µM | > 100 µM | > 100 µM | > 100 µM | > 100 µM | > 100 µM | > 100 µM |
| Cn1c(NS(=O)(=O)c2ccccc2)nc2ccccc21 | > 100 µM | > 100 µM | > 100 µM | > 100 µM | > 100 µM | > 100 µM | > 100 µM | > 100 µM | > 100 µM | > 100 µM | > 100 µM |  | > 100 µM | > 100 µM |
| Cc1ccc(Nc2nc(N)nc3c2ncn3C2OC(CO)C(O)C2O)cc1 (centres undefined) | > 100 µM | > 100 µM | > 100 µM | > 100 µM | > 100 µM | > 100 µM | > 100 µM |  | > 100 µM | > 100 µM |  | > 100 µM | > 100 µM | > 100 µM |
| COC(=O)c1ccc(N=NN(C)COc2ccc([N+](=O)[O-])cc2)cc1 | > 100 µM |  | > 100 µM | > 100 µM | 52.5 µM | > 100 µM | > 100 µM | > 100 µM | > 100 µM | > 100 µM | > 100 µM | > 100 µM | > 100 µM | > 100 µM |
| CC(NC(=O)CNC(=O)OC(C)(C)C)C(=O)NC(Cc1ccccc1)C(=O)OCc1ccccc1 (stereo not drawn) (Boc-Gly-Ala-Phe-OBn; configuration not given here) | > 100 µM | > 100 µM | > 100 µM | > 100 µM | > 100 µM | > 100 µM | > 100 µM |  | > 100 µM | > 100 µM | > 100 µM | > 100 µM | > 100 µM | > 100 µM |
